Test results reported in patent US11028078B2 (The Johns Hopkins University, priority 2011, dated 2021).
Where two headings read alike, the source gives them in different places.

Key:
HUVEC = HUVEC proliferation assay ([3H]thymidine incorporation); assay type: cell-based, human; settings: HUVEC; for IC50: Homo sapiens; for Proliferation (IC50/IC50 Itra): Table 7, relative to itraconazole
In short: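 Pooled HUVEC at passage eight or lower, grown in EGM-2 medium; proliferation measured by [3H]thymidine incorporation as in an earlier published protocol.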

CYP3A4 [1] = molecular target: T1, CYP3A4 (Homo sapiens, UniProt P08684); experiment: CYP3A4 enzyme assay (Vivid CYP3A4 Green Screening Kit); assay type: in vitro ADME; settings: for CYP3A4 Inhibition (compared to intracozanole at 1 μm): % enzyme inhibition at 1 μM drug / % enzyme inhibition at 1 μM itraconazole; for CYP3A4 inhibition in the initial screening: 1 μM
T1 construct: purchased ThermoFisher P2857; host or cells: baculosomes
T1 sequence (P08684 whole entry): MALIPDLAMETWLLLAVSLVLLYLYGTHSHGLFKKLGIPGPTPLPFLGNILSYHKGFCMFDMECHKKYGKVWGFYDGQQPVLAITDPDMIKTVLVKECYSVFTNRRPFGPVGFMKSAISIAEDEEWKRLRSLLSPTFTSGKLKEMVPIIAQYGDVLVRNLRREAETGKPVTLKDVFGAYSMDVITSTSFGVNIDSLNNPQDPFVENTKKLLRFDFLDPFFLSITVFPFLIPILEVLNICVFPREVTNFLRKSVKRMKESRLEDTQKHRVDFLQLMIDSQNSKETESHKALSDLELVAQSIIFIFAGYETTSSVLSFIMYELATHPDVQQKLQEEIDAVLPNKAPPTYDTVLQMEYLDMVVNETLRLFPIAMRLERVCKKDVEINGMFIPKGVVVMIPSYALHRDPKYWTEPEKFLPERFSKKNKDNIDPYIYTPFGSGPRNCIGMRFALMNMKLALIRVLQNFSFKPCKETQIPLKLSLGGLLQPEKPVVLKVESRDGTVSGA
Protocol: And CYP3A4 inhibition was initially determined using a cell-free fluorescence-based assay at a final concentration of 1 μM (Table 7).
CYP3A4 enzyme assay. CYP3A4 enzyme activity was tested using Vivid™ CYP3A4 Green Screening Kit (ThermoFisher, #P2857) using the manufacturer's protocol. Briefly, CYP3A4 baculosomes and drugs were incubated 10 min at 37° C. Then Vivid® Substrates were added and the fluorescence (ex/em:485/520) were read every 1 min for 60 minute.

CYP3A4 [2] = molecular target: T1, CYP3A4; experiment: as above; assay type: in vitro ADME; settings: FIG. 12, higher concentrations
[3] = 3H thymidine incorporation, in μM, read-out: Proliferation IC50

Row | SMILES | CYP3A4 Inhibition (compared to intracozanole at 1 μm) (CYP3A4 [1]) | CYP3A4 inhibition in the initial screening (CYP3A4 [1]) | CYP3A4 inhibition in dose response assays (CYP3A4 [2]) | IC50 (HUVEC; [3]) | Proliferation (IC50/IC50 Itra) (HUVEC) | IC50 (HUVEC; read-out: IC50 for inhibition of HUVEC proliferation)
1 | CCC(C)n1ncn(-c2ccc(N3CCN(c4ccc(OC[C@@H]5CO[C@@](Cn6cnc(C)c6)(c6ccc(Cl)cc6Cl)O5)cc4)CC3)cc2)c1=O (stereo partly drawn) [Compound 238, 1-sec-butyl-4-(4-(4-(4-(((2S,4R)-2-(2,4-dichlorophenyl)-2-((4-methyl-H-imidazol-1-yl)methyl)-1,3-dioxolan-4-yl)methoxy)phenyl)piperazin-1-yl)phenyl)-1H-1,2,4-triazol-5(4H)-one] | 1.18 |  |  | 0.102 µM |  | 
2 | CCC(C)n1ncn(-c2ccc(N3CCN(c4ccc(OC[C@@H]5CO[C@@](Cn6ncnn6)(c6ccc(Cl)cc6Cl)O5)cc4)CC3)cc2)c1=O (stereo partly drawn) [Compound 249, 4-(4-(4-(4-(((2S,4R)-2-((2H-tetrazol-2-yl)methyl)-2-(2,4-dichlorophenyl)-1,3-dioxolan-4-yl)methoxy)phenyl)piperazin-1-yl)phenyl)-1-sec-butyl-1H-1,2,4-triazol-5(4H)-one] | 0.2 |  |  | 0.102 µM | 0.6 | 
3 | CCC(C)n1ncn(-c2ccc(N3CCN(c4ccc(OC[C@@H]5CO[C@@](Cn6ccnc6-c6ccccc6)(c6ccc(Cl)cc6Cl)O5)cc4)CC3)cc2)c1=O (stereo partly drawn) [Compound 246, 1-sec-butyl-4-(4-(4-(4-(((2S,4R)-2-(2,4-dichlorophenyl)-2-((2-phenyl-1H-imidazol-1-yl)methyl)-1,3-dioxolan-4-yl)methoxy)phenyl)piperazin-1-yl)phenyl)-1H-1,2,4-triazol-5(4H)-one] | 0.27 |  |  | 0.136 µM |  | 
4 | CCC(C)n1ncn(-c2ccc(N3CCN(c4ccc(OC[C@@H]5CO[C@@](Cn6ccnc6C(C)C)(c6ccc(Cl)cc6Cl)O5)cc4)CC3)cc2)c1=O (stereo partly drawn) [Compound 245, 1-sec-butyl-4-(4-(4-(4-(((2S,4R)-2-(2,4-dichlorophenyl)-2-((2-isopropyl-1H-imidazol-1-yl)methyl)-1,3-dioxolan-4-yl)methoxy)phenyl)piperazin-1-yl)phenyl)-1H-1,2,4-triazol-5(4H)-one] | 0.07 |  |  | 0.068 µM | 0.4 | 
5 | CCC(C)n1ncn(-c2ccc(N3CCN(c4ccc(OC[C@@H]5CO[C@@](Cn6nnnc6C)(c6ccc(Cl)cc6Cl)O5)cc4)CC3)cc2)c1=O (stereo partly drawn) [Compound 252, 1-sec-butyl-4-(4-(4-(4-(((2S,4R)-2-(2,4-dichlorophenyl)-2-((5-methyl-1H-tetrazol-1-yl)methyl)-1,3-dioxolan-4-yl)methoxy)phenyl)piperazin-1-yl)phenyl)-1H-1,2,4-triazol-5(4H)-one] | 0.08 |  |  | 0.101 µM |  | 
6 | CCC(C)n1ncn(-c2ccc(N3CCN(c4ccc(OC[C@@H]5CO[C@@](Cn6cc(C)nc6C)(c6ccc(Cl)cc6Cl)O5)cc4)CC3)cc2)c1=O (stereo partly drawn) [Compound 240, 1-(sec-butyl)-4-(4-(4-(4-(((2S,4R)-2-(2,4-dichlorophenyl)-2-((2,4-dimethyl-1H-imidazol-1-yl)methyl)-1,3-dioxolan-4-yl)methoxy)phenyl)piperazin-1-yl)phenyl)-1H-1,2,4-triazol-5(4H)-one] | 0.45 |  |  | 0.492 µM |  | 
7 | CCC(C)n1ncn(-c2ccc(N3CCN(c4ccc(OC[C@@H]5CO[C@@](Cn6c(C)cnc6C)(c6ccc(Cl)cc6Cl)O5)cc4)CC3)cc2)c1=O (stereo partly drawn) [Compound 241, 1-(sec-butyl)-4-(4-(4-(4-(((2S,4R)-2-(2,4-dichlorophenyl)-2-((2,5-dimethyl-1H-imidazol-1-yl)methyl)-1,3-dioxolan-4-yl)methoxy)phenyl)piperazin-1-yl)phenyl)-1H-1,2,4-triazol-5(4H)-one] | 0.27 |  |  | 0.492 µM | 3.1 | 
8 | CCC(C)n1ncn(-c2ccc(N3CCN(c4ccc(OC[C@@H]5CO[C@@](Cn6cnc(C(F)(F)F)n6)(c6ccc(Cl)cc6Cl)O5)cc4)CC3)cc2)c1=O (stereo partly drawn) [Compound 251, 1-sec-butyl-4-(4-(4-(4-(((2S,4R)-2-(2,4-dichlorophenyl)-2-((3-(trifluoromethyl)-1H-1,2,4-triazol-1-yl)methyl)-1,3-dioxolan-4-yl)methoxy)phenyl)piperazin-1-yl)phenyl)-1H-1,2,4-triazol-5(4H)-one] | No inhibition | eliminated CYP3A4 inhibition |  | 0.272 µM |  | 0.27 µM
9 | CCC(C)n1ncn(-c2ccc(N3CCN(c4ccc(OC[C@@H]5CO[C@@](Cn6cc(C(F)(F)F)nc6C)(c6ccc(Cl)cc6Cl)O5)cc4)CC3)cc2)c1=O (stereo partly drawn) [Compound 239, 1-(sec-butyl)-4-(4-(4-(4-(((2S,4R)-2-(2,4-dichlorophenyl)-2-((2-methyl-4-(trifluoromethyl)-1H-imidazol-1-yl)methyl)-1,3-dioxolan-4-yl)methoxy)phenyl)piperazin-1-yl)phenyl)-1H-1,2,4-triazol-5(4H)-one] | No inhibition | eliminated |  | 0.441 µM |  | 
10 | CCC(C)n1ncn(-c2ccc(N3CCN(c4ccc(OC[C@@H]5CO[C@@](Cn6ccnc6C)(c6ccc(Cl)cc6Cl)O5)cc4)CC3)cc2)c1=O (stereo partly drawn) [Compound 235, 1-sec-butyl-4-(4-(4-(4-(((2S,4R)-2-(2,4-dichlorophenyl)-2-((2-methyl-1H-imidazol-1-yl)methyl)-1,3-dioxolan-4-yl)methoxy)phenyl)piperazin-1-yl)phenyl)-1H-1,2,4-triazol-5(4H)-one] | 0.85 |  |  | 0.173 µM |  | 

Second part, led by results:

Row | CYP3A4 Inhibition (compared to intracozanole at 1 μm) (CYP3A4 [1]) | CYP3A4 inhibition in the initial screening (CYP3A4 [1]) | CYP3A4 inhibition in dose response assays (CYP3A4 [2]) | SMILES | IC50 (HUVEC; [3]) | Proliferation (IC50/IC50 Itra) (HUVEC) | IC50 (HUVEC; read-out: IC50 for inhibition of HUVEC proliferation)
11 | 1.09 |  |  | CCC(C)n1ncn(-c2ccc(N3CCN(c4ccc(OC[C@@H]5CO[C@@](CN6CCNCC6)(c6ccc(Cl)cc6Cl)O5)cc4)CC3)cc2)c1=O (stereo partly drawn) [Compound 266, 1-(sec-butyl)-4-(4-(4-(4-(((2S,4R)-2-(2,4-dichlorophenyl)-2-(piperazin-1-ylmethyl)-1,3-dioxolan-4-yl)methoxy)phenyl)piperazin-1-yl)phenyl)-1H-1,2,4-triazol-5(4H)-one] | 0.608 µM |  | 
12 | No inhibition |  |  | CCC(C)n1ncn(-c2ccc(N3CCN(c4ccc(OC[C@@H]5COC(c6ccc(Cl)cc6Cl)O5)cc4)CC3)cc2)c1=O (stereo partly drawn) [Compound 262, 1-sec-butyl-4-(4-(4-(4-(((4R)-2-(2,4-dichlorophenyl)-1,3-dioxolan-4-yl)methoxy)phenyl)piperazin-1-yl)phenyl)-1H-1,2,4-triazol-5(4H)-one] | 0.328 µM |  | 
13 | 0.20 |  |  | CCC(C)n1ncn(-c2ccc(N3CCN(c4ccc(OC[C@@H]5CO[C@@](CN6CCOCC6)(c6ccc(Cl)cc6Cl)O5)cc4)CC3)cc2)c1=O (stereo partly drawn) [Compound 263, 1-(sec-butyl)-4-(4-(4-(4-(((2S,4R)-2-(2,4-dichlorophenyl)-2-(morpholinomethyl)-1,3-dioxolan-4-yl)methoxy)phenyl)piperazin-1-yl)phenyl)-1H-1,2,4-triazol-5(4H)-one] | 1.18 µM |  | 
14 | No inhibition |  |  | CCC(C)n1ncn(-c2ccc(N3CCN(c4ccc(OC[C@@H]5CO[C@@](CN(C)C)(c6ccc(Cl)cc6Cl)O5)cc4)CC3)cc2)c1=O (stereo partly drawn) [Compound 264, 1-(sec-butyl)-4-(4-(4-(4-(((2S,4R)-2-(2,4-dichlorophenyl)-2-((dimethylamino)methyl)-1,3-dioxolan-4-yl)methoxy)phenyl)piperazin-1-yl)phenyl)-1H-1,2,4-triazol-5(4H)-one] | 1.4 µM |  | 
15 | No inhibition |  |  | CCC(C)n1ncn(-c2ccc(N3CCN(c4ccc(OC[C@@H]5CO[C@@](CC6CCCC6)(c6ccc(Cl)cc6Cl)O5)cc4)CC3)cc2)c1=O (stereo partly drawn) [Compound 261, 1-sec-butyl-4-(4-(4-(4-(((2R,4R)-2-(cyclopentylmethyl)-2-(2,4-dichlorophenyl)-1,3-dioxolan-4-yl)methoxy)phenyl)piperazin-1-yl)phenyl)-1H-1,2,4-triazol-5(4H)-one] | 0.512 µM |  | 
16 | No inhibition |  | totally lost CYP3A4 inhibition | CCC(C)n1ncn(-c2ccc(N3CCN(c4ccc(OC[C@@H]5CO[C@@](CC)(c6ccc(Cl)cc6Cl)O5)cc4)CC3)cc2)c1=O (stereo partly drawn) [Compound 259, 1-sec-butyl-4-(4-(4-(4-(((2R,4R)-2-(2,4-dichlorophenyl)-2-ethyl-1,3-dioxolan-4-yl)methoxy)phenyl)piperazin-1-yl)phenyl)-1H-1,2,4-triazol-5(4H)-one] | 0.314 µM |  | 
17 | 0.21 |  |  | CCC(C)n1ncn(-c2ccc(N3CCN(c4ccc(OC[C@@H]5CO[C@@](CN6CCN(C)CC6)(c6ccc(Cl)cc6Cl)O5)cc4)CC3)cc2)c1=O (stereo partly drawn) [Compound 265, 1-(sec-butyl)-4-(4-(4-(4-(((2S,4R)-2-(2,4-dichlorophenyl)-2-((4-methylpiperazin-1-yl)methyl)-1,3-dioxolan-4-yl)methoxy)phenyl)piperazin-1-yl)phenyl)-1H-1,2,4-triazol-5(4H)-one] | 0.396 µM |  | 
